The test system of assay [1] is AML. Put plainly: Tipifarnib treatment of relapsed or refractory AML patients, survival analysed by mRNA expression of FLT3LG/CXCR4. Format: in vivo, human. The procedure: (§1) Previous clinical studies with tipifarnib were performed in newly diagnosed AML in elderly patients with poor risk AML or relapsed and refractory AML. In these studies, patient selection was not based on genetic markers. Anecdotal evidence of tipifarnib single agent activity was reported.

Assay [2] concerns AML. In words: Tipifarnib treatment of previously untreated elderly or unfit AML patients, survival analysed by mRNA expression of FLT3LG/CXCR4. Format: in vivo, human. The protocol:
as §1

Where [3] appears, read: first three quartiles of FLT3LG expression.
[4] abbreviates: highest FLT3LG tertile and highest CXCR4 tertile (N=10).
The mark [5] stands for this setting: highest quintile of FLT3LG expression.
Where [6] appears, read: rest of patients with either lower FLT3LG or lower CXCR4 expression (N=47).
The mark [7] stands for this setting: highest FLT3LG expression tertile.
Where [8] appears, read: second FLT3LG expression tertile.
The mark [9] stands for this setting: third tertile (lowest level of FLT3LG expression).

Consider `Cn1cncc1[C@@](N)(c1ccc(Cl)cc1)c1ccc2c(c1)c(-c1cccc(Cl)c1)cc(=O)n2C` [tipifarnib], for which the “median overall survival (mOS)” value in the assay with AML [1] (setting [3]) was 54 to 83 days; with AML [1] (setting [4]), 234 days; in the assay with AML [1] (setting [5]), 234 days; in the assay with AML [1] (setting [6]), 84 days; in the assay on AML [2] (setting [7]), 548 days; with AML [2] (setting [8]) it was 153 days. Besides, in the assay with AML [2] (setting [9]), the “median overall survival (mOS)” value turned out to be 76 days. Besides, the “median progression free survival (mPFS)” value in the assay with AML [1] (setting [3]) is 28 to 29 days; in the assay on AML [1] (setting [4]) it was 148 days; with AML [1] (setting [5]) it was 119 days; with AML [1] (setting [6]) it was 29 days; in the assay on AML [2] (setting [7]), 247 days; with AML [2] (setting [8]), 64 days. Moreover, the “median progression free survival (mPFS)” value in the assay with AML [2] (setting [9]) was 35 days.

(Values after patent US20220305001A1, “METHODS OF TREATING ACUTE MYELOID LEUKEMIA WITH FARNESYLTRANSFERASE INHIBITORS” (Kura Oncology, Inc., priority 2019, published 2022).)
